Data reported in ChEMBL document CHEMBL4321839, “Structure-activity relationships (SAR) of triazine derivatives: Promising antimicrobial agents” (Eur J Med Chem, 2020).
Values after ≈ are worked out from the molar mass of the structure shown.

How the values were obtained:
Aspergillus niger = experiment: Antifungal activity against Aspergillus niger NCIM-620 at 72 hrs by CLSI based alamar blue assay; type: functional; conditions: NCIM-620, 72 h
Nakaseomyces glabratus = experiment: Antifungal activity against Candida glabrata NCIM-3266 at 18 to 24 hrs by CLSI based alamar blue assay; type: functional
Candida albicans = experiment: Antifungal activity against Candida albicans NCIM-3102 at 18 to 24 hrs by CLSI based alamar blue assay; type: functional
Cryptococcus neoformans = experiment: Antifungal activity against Cryptococcus neoformans NCIM-3542 at 72 hrs by CLSI based alamar blue assay; type: functional; conditions: NCIM-3542, 72 h
Escherichia coli [1] = experiment: Antimicrobial activity multi drug-resistant against Escherichia coli; type: functional
Staphylococcus aureus [2] = experiment: Antimicrobial activity methicillin-resistant against Staphylococcus aureus; type: functional
Pseudomonas aeruginosa [3] = experiment: Antimicrobial activity against Pseudomonas aeruginosa NCIM-2036 after 24 hrs by CLSI based broth dilution method; type: functional; conditions: NCIM-2036, 24 h
Bacillus subtilis = experiment: Antimicrobial activity against Bacillus subtilis NCIM-2063 assessed as zone of inhibition at 5 ug after 24 hrs by disk diffusion method; type: functional; conditions: NCIM-2063, 24 h, read-out: IZ
Staphylococcus aureus [4] = experiment: Antimicrobial activity against Staphylococcus aureus NCIM-2079 assessed as zone of inhibition at 5 ug after 24 hrs by disk diffusion method; type: functional; conditions: NCIM-2079, 24 h, read-out: IZ
Bacillus cereus = experiment: Antimicrobial activity against Bacillus cereus NCIM-2156 assessed as zone of inhibition at 5 ug after 24 hrs by disk diffusion method; type: functional; conditions: NCIM-2156, 24 h, read-out: IZ
Pseudomonas aeruginosa [5] = experiment: Antimicrobial activity against Pseudomonas aeruginosa NCIM-2036 assessed as zone of inhibition at 5 ug after 24 hrs by disk diffusion method; type: functional; conditions: NCIM-2036, 24 h, read-out: IZ
Staphylococcus aureus [6] = experiment: Antimicrobial activity against methicillin-resistant Staphylococcus aureus clinical isolate MRSA1 assessed as reduction in microbial growth by two-fold serial dilution method; type: functional
[7] = Cytotoxicity against African green monkey Vero cells incubated for 72 hrs by MTT assay; type: cell-based; conditions: chlorocebus sabaeus
Escherichia coli [8] = experiment: Antimicrobial activity against Escherichia coli ATCC 25922 assessed as reduction in microbial growth after 24 to 48 hrs by microdilution susceptibility test; type: functional
Staphylococcus aureus [9] = experiment: Antimicrobial activity against Staphylococcus aureus […] assessed as reduction in microbial growth after 24 to 48 hrs by microdilution susceptibility test; type: functional
Klebsiella pneumoniae = experiment: Antimicrobial activity against multi drug-resistant Klebsiella pneumoniae assessed as reduction in microbial growth by two-fold serial dilution method; type: functional
Pseudomonas aeruginosa [10] = experiment: Antimicrobial activity against Pseudomonas aeruginosa MTCC 1688 assessed as reduction in microbial growth after 24 to 48 hrs by broth dilution method; type: functional
Escherichia coli [11] = experiment: Antimicrobial activity against Escherichia coli MTCC 443 assessed as reduction in microbial growth after 24 to 48 hrs by broth dilution method; type: functional
Escherichia coli [12] = experiment: Antimicrobial activity against multi drug-resistant Escherichia coli assessed as reduction in microbial growth after 24 to 48 hrs by microdilution susceptibility test; type: functional
Staphylococcus aureus [13] = experiment: Antimicrobial activity against methicillin-resistant Staphylococcus aureus assessed as reduction in microbial growth after 24 to 48 hrs by microdilution susceptibility test; type: functional

c1ccc(-c2csc(Nc3nc(N4CCOCC4)nc(N4CCOCC4)n3)n2)cc1
MIC (Aspergillus niger): 0.63 to 5 µg/mL (≈ 1.48 to 11.8 µM) | MIC (Nakaseomyces glabratus): 0.63 to 5 µg/mL (≈ 1.48 to 11.8 µM) | MIC (Candida albicans): 0.63 to 5 µg/mL (≈ 1.48 to 11.8 µM) | MIC (Cryptococcus neoformans): 0.63 to 5 µg/mL (≈ 1.48 to 11.8 µM)

Cc1ccc(C2=NN=C3C(F)CC4=C(C(C5CC5)C=C(C(=O)O)C4=O)N3C2)cc1 (stereo unspecified)
MIC (Escherichia coli [1]): 0.25 µg/mL (≈ 0.635 µM) | MIC (Staphylococcus aureus [2]): 0.5 µg/mL (≈ 1.27 µM)

CC1=NN(c2ccccc2)C(C)C1Nc1nnc(Sc2nc(Nc3ccc(F)cc3)nc(Nc3ccc(F)cc3)n2)s1 (stereo unspecified)
MIC (Pseudomonas aeruginosa [3]): 6.25 µg/mL (≈ 10.4 µM)

CC1=NN(c2ccccc2)C(C)C1Nc1nnc(Sc2nc(Nc3ccc(Br)cc3)nc(Nc3ccc(Br)cc3)n2)s1 (stereo unspecified)
MIC (Pseudomonas aeruginosa [3]): 6.25 µg/mL (≈ 8.63 µM)

CC(C)Nc1nc(Nc2nc(-c3ccc(Cl)cc3)cs2)nc(NC(C)C)n1
MIC (Candida albicans): 5 µg/mL (≈ 12.4 µM)

S=C(Nc1ccnc2cc(Cl)ccc12)N1CCN(c2nc(Nc3ccc(Cl)cc3)nc(Nc3ccc(Cl)cc3)n2)CC1
zone of inhibition at 5 µg/disc (Bacillus subtilis): 16 to 17 mm | zone of inhibition at 5 µg/disc (Staphylococcus aureus [4]): 16 to 17 mm | zone of inhibition at 5 µg/disc (Bacillus cereus): 9 to 17 mm | zone of inhibition at 5 µg/disc (Pseudomonas aeruginosa [5]): 9 to 17 mm

COc1ccc(C2=NN=C3C(F)CC4=C(C(C5CC5)C=C(C(=O)O)C4=O)N3C2)cc1OC (stereo unspecified)
MIC (Escherichia coli [1]): 0.5 µg/mL (≈ 1.14 µM) | MIC (Staphylococcus aureus [2]): 1 µg/mL (≈ 2.28 µM)

O=C(N/N=C/c1ccc2c(c1)OCO2)c1ccc(Nc2nc(N3CCCCC3)nc(N3CCCCC3)n2)cc1
MIC (Staphylococcus aureus [6]): 25 µg/mL | CC50 at 72 h [7]: 250 µg/mL (≈ 473 µM)

Clc1ccc(-c2csc(Nc3nc(N4CCOCC4)nc(N4CCOCC4)n3)n2)cc1
MIC (Aspergillus niger): 0.63 to 5 µg/mL (≈ 1.37 to 10.9 µM) | MIC (Nakaseomyces glabratus): 0.63 to 5 µg/mL (≈ 1.37 to 10.9 µM) | MIC (Candida albicans): 0.63 to 5 µg/mL (≈ 1.37 to 10.9 µM) | MIC (Cryptococcus neoformans): 0.63 to 5 µg/mL (≈ 1.37 to 10.9 µM)

CC1=NN(c2ccccc2)C(C)C1Nc1nnc(Sc2nc(Nc3ccc(Cl)cc3)nc(Nc3ccc(Cl)cc3)n2)s1 (stereo unspecified)
MIC (Pseudomonas aeruginosa [3]): 6.25 µg/mL (≈ 9.83 µM)

O=[N+]([O-])c1ccc(-c2csc(Nc3nc(N(c4ccccc4)c4ccccc4)nc(N(c4ccccc4)c4ccccc4)n3)n2)cc1
MIC (Nakaseomyces glabratus): 0.32 µg/mL (≈ 0.504 µM) | MIC (Candida albicans): 0.32 µg/mL (≈ 0.504 µM)

Nc1ccc(C2=NN=C3C(F)CC4=C(C(C5CC5)C=C(C(=O)O)C4=O)N3C2)cc1 (stereo unspecified)
MIC (Staphylococcus aureus [2]): 0.25 µg/mL (≈ 0.634 µM)

COc1ccccc1C1=NN=C2C(F)CC3=C(C(C4CC4)C=C(C(=O)O)C3=O)N2C1 (stereo unspecified)
MIC (Escherichia coli [1]): 0.5 µg/mL (≈ 1.22 µM) | MIC (Staphylococcus aureus [2]): 1 µg/mL (≈ 2.44 µM)

O=[N+]([O-])c1ccc(-c2csc(Nc3nc(N4CCOCC4)nc(N4CCOCC4)n3)n2)cc1
MIC (Aspergillus niger): 0.63 to 5 µg/mL (≈ 1.34 to 10.6 µM) | MIC (Nakaseomyces glabratus): 0.63 to 5 µg/mL (≈ 1.34 to 10.6 µM) | MIC (Candida albicans): 0.63 to 5 µg/mL (≈ 1.34 to 10.6 µM) | MIC (Cryptococcus neoformans): 0.63 to 5 µg/mL (≈ 1.34 to 10.6 µM)

O=C(CNc1nc(NCC(=O)N/N=C/c2ccc(Cl)cc2)nc(N2CCN(c3nc(NCC(=O)N/N=C/c4ccc(Cl)cc4)nc(NCC(=O)N/N=C/c4ccc(Cl)cc4)n3)CC2)n1)N/N=C/c1ccc(Cl)cc1
MIC (Escherichia coli [8]): 12.5 to 25 µg/mL | MIC (Staphylococcus aureus [9]): 12.5 to 25 µg/mL

S=C(Nc1ccnc2cc(Cl)ccc12)N1CCN(c2nc(Nc3ccc(Br)cc3)nc(Nc3ccc(Br)cc3)n2)CC1
zone of inhibition at 5 µg/disc (Bacillus subtilis): 16 to 17 mm | zone of inhibition at 5 µg/disc (Staphylococcus aureus [4]): 16 to 17 mm | zone of inhibition at 5 µg/disc (Bacillus cereus): 9 to 17 mm | zone of inhibition at 5 µg/disc (Pseudomonas aeruginosa [5]): 9 to 17 mm

O=C(N/N=C/c1ccccc1)c1ccc(Nc2nc(N3CCCCC3)nc(N3CCCCC3)n2)cc1
MIC (Klebsiella pneumoniae): 50 µg/mL | CC50 at 72 h [7]: 250 µg/mL (≈ 516 µM)

Nc1nc(N)nc(Nc2ccc(C(=O)N/N=C/c3ccco3)cc2)n1
MIC (Staphylococcus aureus [6]): 3.12 µg/mL | MIC (Klebsiella pneumoniae): 12.5 µg/mL | CC50 at 72 h [7]: 125 µg/mL (≈ 369 µM)

O=C(O)C1=CC(C2CC2)C2=C(CC(F)C3=NN=C(c4ccc(Cl)cc4)CN32)C1=O (stereo unspecified)
MIC (Escherichia coli [1]): 8 µg/mL (≈ 19.3 µM) | MIC (Staphylococcus aureus [2]): 8 µg/mL (≈ 19.3 µM)

O=[N+]([O-])c1ccc(Nc2nc(Nc3ccc(S(=O)(=O)Nc4ncccn4)cc3)nc(N3CCCCC3)n2)cc1
MIC (Pseudomonas aeruginosa [10]): 50 µg/mL | MIC (Escherichia coli [11]): 25 µg/mL

O=C(O)c1ccc(Nc2nc(Cl)nc(N3CCCCC3)n2)cc1
MIC (Escherichia coli [8]): 25 µg/mL | MIC (Staphylococcus aureus [9]): 25 µg/mL | MIC (Escherichia coli [12]): 25 µg/mL | CC50 at 72 h [7]: 125 µg/mL (≈ 374 µM) | MIC (Staphylococcus aureus [13]): 100 µg/mL
